This test addresses T1, phosphoglycerate kinase 1 (PGK1) (Homo sapiens, UniProt P00558).
T1 construct: Flag-tagged PGK1, whole-length cDNA, purified from HEK293T cells
T1 sequence (P00558 2-417): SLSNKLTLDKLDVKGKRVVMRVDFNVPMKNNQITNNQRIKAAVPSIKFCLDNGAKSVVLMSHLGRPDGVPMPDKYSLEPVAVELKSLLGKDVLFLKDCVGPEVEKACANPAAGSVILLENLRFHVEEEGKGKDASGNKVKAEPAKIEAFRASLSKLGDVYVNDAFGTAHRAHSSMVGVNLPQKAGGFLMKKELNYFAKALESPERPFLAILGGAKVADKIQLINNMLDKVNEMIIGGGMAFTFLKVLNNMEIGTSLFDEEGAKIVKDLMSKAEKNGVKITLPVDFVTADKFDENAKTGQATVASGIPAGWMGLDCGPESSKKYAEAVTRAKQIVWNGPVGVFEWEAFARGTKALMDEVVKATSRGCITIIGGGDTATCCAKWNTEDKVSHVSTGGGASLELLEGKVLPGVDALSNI
The test can be described thus: in vitro enzymatic assay of purified Flag-PGK1, GAPDH-coupled, NADH decrease at […] nm. The class given is biochemical.

Molecules are shown by their SMILES.

In general, IC50 refers to the concentration that gives 50% inhibition. Lower therefore signals greater potency.

`Nc1ccn([C@@H]2O[C@H](CO)[C@@H](O)C2(F)F)c(=O)n1` [gemcitabine] returned an IC50 of 16.3 nM.

These data come from article PMC10039899, “Integrative proteogenomic characterization of early esophageal cancer” (Nature Communications, 2023).
